Measurements taken from patent US10287267B2, “Isoquinolin-3-yl carboxamides and preparation and use thereof” (Samumed, LLC, priority 2016, dated 2019).

Key:
[1] = test system: α-smooth muscle actin (αSMA) positive LL29 cells; assay: Inhibition of fibrotic process: αSMA in TGF-β1 treated primary human fibroblasts from IPF patients; format: cell-based; conditions: Homo sapiens, Fibroblast; for EC50: 96 h, Table 8, LL29 fibroblasts from IPF patients, TGF-β1 20 ng/mL, 4 days, dose-response 10 μM to 0.94 nM;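 for all read-outs here: controls were TGF-β1 stimulated wells with DMSO vehicle (positive) and cells given DMSO alone (negative), cultured in F12 medium with 1% fetal bovine serum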
[2] = biological target: recombinant DYRK1A kinase (Homo sapiens (Human), UniProt Q13627); assay: DYRK1A kinase assay (Ser/Thr 18 peptide Z-lyte FRET); format: biochemical; conditions: 30 μM ATP, 1 h room temperature;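 note: Read-out is the coumarin to fluorescein emission ratio, referenced to unphosphorylated (0%) and phosphorylated (100%) Ser/Thr 18 peptide controls, values from dose-response curves by non-linear regression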
[3] = test system: IL-6; assay: Secreted cytokines in lipopolysaccharide-stimulated BV-2 mouse microglial cells: IL-6; format: cell-based; conditions: Mus musculus; BV-2 cells, compounds overnight, LPS 250 ng/mL 5 h
Procedure: (§1) Representative compounds were screened using the cell-based assay procedure for secreted cytokines in a Lipopolysaccharide-stimulated mouse glial cell line described below.
(§2) BV-2 cells (mouse microglial cells) were cultured in 1:1 DMEM medium supplemented with 10% FBS, and 1% penicillin/streptomycin.
(§3) BV-2 cells are plated at 35,000 cells/well in a volume of 100 ul for at least 4 hours before compounds are added. DMSO-resuspended compounds were first dispensed in a 96 well plate and serial diluted from 10 μM to 4.6 nM final concentration in medium. Compounds were added to cells overnight. Two hundred fifty ng per milliliter of lipopolysaccharide (Escherichia coli O55:B5, SIGMA) was added for 5 h. Supernatant is removed and saved for further cytokine detection. The original plates with seeded cells were tested for cytotoxicity by measure of adenosine triphosphate (ATP) release by adding CellTiter-Glo® diluted 1:4 in distilled water (G7573, Promega) and transferring lysed cells to a completely black 96-well plate to be read with the Cytation3. Supernatant was then diluted 1:2 with a diluent from V-PLEX cytokine Kit and directly tested for the secreted cytokines TNFα, IL-6 and KC-GRO using electrochemiluminescence (Meso Scale Discovery). The standard curve for each cytokine was used to convert the electrochemiluminescent signal into pg of protein per mL.

[4] = test system: Wnt pathway (Sp5-Luc reporter, TCF/LEF binding sites) in SW480 colon carcinoma cells; assay: Screening assay for Wnt activity: Sp5-Luc reporter gene assay; format: cell-based, human; conditions: Homo sapiens; Sp5-Luc reporter, SW480 cells, 36 to 48 hours;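 note: firefly luciferase luminescence read in stably transduced SW480 cells carrying the Sp5 promoter reporter with eight TCF/LEF sites, compounds given in 0.1% DMSO final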
Procedure: The screening assay for Wnt activity is described as follows.
Following incubation, 15 μl of BriteLite Plus luminescence reagent (Perkin Elmer) was added to each well of the 384-well assay plates. The plates were placed on an orbital shaker for 2 min and then luminescence was quantified using the Envision (Perkin Elmer) plate reader.

[5] = test system: IL-6; assay: IL-6 inhibition in LPS-stimulated human peripheral blood mononuclear cells (HTRF); format: cell-based; conditions: Homo sapiens, PBMC; for EC50: Table 9, huPBMCs, LPS 50 ng/mL, 22 hours, dose-response starting from 10 μM; for inhibition at 10 µM: read-out: percent value in parentheses beside EC50 >10 μM;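 for all read-outs here: IL-6 detected by HTRF with an XL665- and Cryptate-labelled anti-IL-6 antibody pair, samples run in duplicate, EC50 obtained from a four-parameter Levenberg-Marquardt curve fit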
Procedure: After 22 hour incubation, a mixture of anti-IL6 XL665 and anti-IL-6 Cryptate diluted in reconstitution buffer (Catalog #62IL6PEC, Cisbio Inc., Bedford, Mass.) was added to each well. […] All samples were processed in duplicate. […] EC50 was determined using software generated by Dotmatics Limited (Windhill Bishops Stortford Herts, UK) using the Levenberg-Marquardt 4 parameter fitting procedure with finite different gradients.

[6] = test system: Tau phosphorylation at Ser396 (pSer396); assay: Tau phosphorylation assay (pSer396 ELISA / western blot) in SH-SY5Y cells; format: cell-based, human; conditions: Homo sapiens; SH-SY5Y cells, overnight (16-18 h) exposure; read-out: pSer396 Tau EC50;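 note: EC50 for reduction of Tau pSer396 in lysed cells, measured by colorimetric ELISA or chemiluminescent western blot, both using the same pSer396 antibody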
Procedure: Two days before treatment, cells were seeded onto 96 well plates at 5×10^4 cells/well.
Wells were visually checked for cell death or change in morphology and supernatants were tested for cytotoxicity by measurement of lactate dehydrogenase release (LDH, CytoToxOne kit, Promega) if necessary.
Cells were lysed with RIPA buffer complemented with phosphatase and protease inhibitors then lysates were spun down at 12,000 g for 10 min to remove any cellular debris. Lysates are then either directly tested for pSer396 by ELISA (Life Technology, Kit KHB7031) or loaded on NuPage Bis-Tris gels for western blot analysis. Colorimetric detection of ELISA signal is performed by Cytation3 plate reader (Biotek) and the chemiluminescence signal for HRP-linked antibodies used in western blotting is detected using a Carestream Image Station. The same pSer396 antibody is used for detection of pTau in both assays.

[7] = test system: secreted β-amyloid 40 (Aβ40) peptide; assay: Secreted β-amyloid 40 (Aβ40) peptide in APP overexpressing SH-SY5Y-APP cells; format: cell-based; conditions: Homo sapiens, overnight (16-18 hours)
Procedure: Representative compounds were screened using the cell-based assay procedure for secreted β-amyloid 40 (Aβ40) peptide in an APP overexpressing cell line described below.
SH-SY5Y cells were infected with lentivirus to overexpress amyloid (A4) beta precursor protein (APP), hereafter referred to as the SH-SY5Y-APP cells.
SH-SY5Y cells were seeded onto 6-well plates at
The cell assay procedure start 18 h prior to treatment, as SH-SY5Y-APP cells were seeded onto 96-well plates at
At this time, designated wells were seeded with SH-SY5Y cells that were seeded and treated with puromycin at
Cells were exposed overnight (16-18 hours) in a 37° C. incubator before supernatant was harvested. […] The original plates with seeded cells were tested for cytotoxicity by measure of adenosine triphosphate (ATP) release by adding CellTiter-Glo® diluted 1:4 in distilled water (G7573, Promega) and transferring lysed cells to a completely black 96-well plate to be read with the Cytation3. Plates containing supernatant were spun down at 1200 g for 10 minutes to remove any cellular debris. Supernatant was then diluted 1:2 with a diluent from V-PLEX Aβ40 Peptide (6E10) Kit and directly tested for secreted Aβ40 peptide (K150SKE, Meso Scale Discovery).

[8] = test system: SW480 colon carcinoma cells; assay: Cell viability assay (CellTiter-Glo); format: cell-based, human; conditions: Homo sapiens; for EC50: 96 h, SW480 cells, CellTiter-Glo, four days incubation
[9] = test system: TNFα; assay: Secreted cytokines in lipopolysaccharide-stimulated BV-2 mouse microglial cells: TNFα; format: cell-based; conditions: BV-2 cells, compounds overnight, LPS 250 ng/mL 5 h
Procedure: as §1, §2, §3

[10] = biological target: recombinant GSK3β kinase (Homo sapiens (Human), UniProt P49841); assay: GSK3β kinase assay (Ser/Thr 09 peptide Z-lyte FRET); format: biochemical; conditions: 46 μM ATP, 1 h room temperature;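 note: kinase activity read as coumarin to fluorescein emission ratio, 11-point threefold dilutions from 10 µM to 0.0003 µM in duplicate, unphosphorylated and phosphorylated peptide as 0% and 100% controls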
[11] = test system: KC-GRO; assay: Secreted cytokines in lipopolysaccharide-stimulated BV-2 mouse microglial cells: KC-GRO; format: cell-based; conditions: BV-2 cells, compounds overnight, LPS 250 ng/mL 5 h
Procedure: as §1, §2, §3

Chain of recombinant GSK3β kinase (P49841 whole entry): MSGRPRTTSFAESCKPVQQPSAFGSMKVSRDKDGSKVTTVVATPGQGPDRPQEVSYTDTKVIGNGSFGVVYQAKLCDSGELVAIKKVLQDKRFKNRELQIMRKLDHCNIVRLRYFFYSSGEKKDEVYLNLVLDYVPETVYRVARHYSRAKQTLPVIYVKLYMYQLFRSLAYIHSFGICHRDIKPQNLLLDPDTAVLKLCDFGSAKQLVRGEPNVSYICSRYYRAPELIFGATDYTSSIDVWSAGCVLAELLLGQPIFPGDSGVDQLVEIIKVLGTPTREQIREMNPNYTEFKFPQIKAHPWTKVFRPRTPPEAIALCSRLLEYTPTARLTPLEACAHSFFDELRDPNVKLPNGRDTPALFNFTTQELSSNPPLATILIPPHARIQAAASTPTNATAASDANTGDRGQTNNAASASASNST

SMILES: Cn1cc(-c2ccc3cnc(NC(=O)C4CCN(CCF)CC4)cc3c2)cn1 [Compound 81, 1-(2-Fluoroethyl)-N-(6-(1-methyl-1H-pyrazol-4-yl)isoquinolin-3-yl) piperidine-4-carboxamide]
- EC50 [1]: 104 nM
- EC50 [2]: 1.5 nM
- EC50 [3]: 30 nM
- EC50 [4]: 735 nM
- EC50 [5]: 395 nM
- EC50 [6]: 452 nM
- IC50 [7]: 2300 nM
- EC50 [8]: 949 nM
- EC50 [9]: > 10000 nM
- EC50 [10]: 30 nM

SMILES: Cn1cncc1-c1ccc2cnc(NC(=O)C3CCN(CCC(F)(F)F)CC3)cc2c1 [Compound 262, N-(6-(1-Methyl-1H-imidazol-5-yl)isoquinolin-3-yl)-1-(3,3,3-trifluoropropyl) piperidine-4-carboxamide]
- EC50 [1]: 43 nM
- EC50 [2]: 1.5 nM
- EC50 [3]: 1500 nM
- EC50 [4]: 1700 nM
- EC50 [5]: 1090 nM
- EC50 [6]: 174 nM
- IC50 [7]: 2200 nM
- EC50 [8]: 1390 nM
- EC50 [9]: 3200 nM
- EC50 [10]: 24 nM

SMILES: CN1CCN(CC(=O)Nc2cc3cc(-c4cn(C)nn4)ccc3cn2)CC1 [Compound 500, N-(6-(1-Methyl-1H-1,2,3-triazol-4-yl)isoquinolin-3-yl)-2-(4-methylpiperazin-1-yl)acetamide]
- EC50 [1]: 675 nM
- EC50 [2]: 10.6 nM
- EC50 [3]: 34 nM
- EC50 [4]: 3230 nM
- inhibition at 10 µM [5]: 4%
- EC50 [5]: > 10000 nM
- EC50 [6]: 388 nM
- EC50 [11]: 7 nM
- EC50 [8]: > 10000 nM
- inhibition at 10 µM ([8]; SW480, read-out: percent inhibition at 10 μM): 25.1%
- EC50 [9]: 1200 nM
- EC50 [10]: 23 nM

SMILES: CN1CCC(C(=O)Nc2cc3cc(-c4cnn(C)c4)c(F)cc3cn2)CC1 [Compound 966, N-(7-Fluoro-6-(1-methyl-1H-pyrazol-4-yl)isoquinolin-3-yl)-1-methylpiperidine-4-carboxamide]
- EC50 [1]: 14 nM
- EC50 [2]: 2 nM
- EC50 [3]: 22 nM
- EC50 [4]: 1590 nM
- EC50 [6]: 236 nM
- EC50 [11]: 71 nM
- EC50 [8]: 259 nM
- EC50 [9]: 60 nM
- EC50 [10]: 32 nM

SMILES: Cn1cc(-c2ccc3cnc(NC(=O)C4CCN(CC(C)(C)O)CC4)cc3c2)cn1 [Compound 1006, 1-(2-Hydroxy-2-methylpropyl)-N-(6-(1-methyl-1H-pyrazol-4-yl)isoquinolin-3-yl)piperidine-4-carboxamide]
- EC50 [1]: 61 nM
- EC50 [2]: 3 nM
- EC50 [3]: 11 nM
- EC50 [4]: 704 nM
- EC50 [5]: 1130 nM
- EC50 [6]: 296 nM
- EC50 [11]: 27 nM
- EC50 [8]: 584 nM
- EC50 [9]: 24 nM
- EC50 [10]: 50 nM

SMILES: Cc1ncc(-c2ccc3cnc(NC(=O)[C@H]4CC[C@H](N(C)C)CC4)cc3c2)o1 [Compound 1017, trans-4-(dimethylamino)-N-(6-(2-methyloxazol-5-yl)isoquinolin-3-yl)cyclohexane-1-carboxamide]
- EC50 [1]: 97 nM
- EC50 [2]: 3.1 nM
- EC50 [3]: 24 nM
- EC50 [4]: 621 nM
- EC50 [5]: 655 nM
- EC50 [6]: 320 nM
- EC50 [11]: 22 nM
- EC50 [8]: 659 nM
- EC50 [9]: 29 nM
- EC50 [10]: 76 nM

SMILES: Cc1nnc(-c2ccc3cnc(NC(=O)C4CCN(CC(C)C)CC4)cc3c2)o1 [Compound 1020, 1-Isobutyl-N-(6-(5-methyl-1,3,4-oxadiazol-2-yl)isoquinolin-3-yl)piperidine-4-carboxamide]
- EC50 [1]: > 10000 nM
- inhibition at 10 µM ([1]; read-out: percent value in parentheses beside EC50 >10 μM): 30.6%
- EC50 [2]: 10.4 nM
- EC50 [3]: 87 nM
- EC50 [4]: 1140 nM
- EC50 [5]: 1180 nM
- EC50 [6]: 49 nM
- EC50 [11]: 708 nM
- EC50 [8]: 1030 nM
- EC50 [9]: 597 nM
- EC50 [10]: 13 nM

SMILES: Cc1ncc(-c2ccc3cnc(NC(=O)[C@H]4CC[C@H](N5CCOCC5)CC4)cc3c2)o1 [Compound 1064, trans-N-(6-(2-methyloxazol-5-yl)isoquinolin-3-yl)-4-morpholinocyclohexane-1-carboxamide]
- EC50 [2]: 6.7 nM
- EC50 [3]: 6 nM
- EC50 [4]: 4120 nM
- EC50 [5]: 3500 nM
- EC50 [6]: 109 nM
- EC50 [11]: 14 nM
- EC50 [8]: 4850 nM
- EC50 [9]: 30 nM
- EC50 [10]: 126 nM

SMILES: CN1CCC(C(=O)Nc2cc3cc(-c4nnc(N(C)C)o4)ccc3cn2)CC1 [Compound 1076, N-(6-(5-(dimethylamino)-1,3,4-oxadiazol-2-yl)isoquinolin-3-yl)-1-methylpiperidine-4-carboxamide]
- EC50 [2]: 8.4 nM
- EC50 [3]: 8 nM
- EC50 [4]: 640 nM
- inhibition at 10 µM [5]: 3%
- EC50 [5]: > 10000 nM
- EC50 [6]: 41 nM
- EC50 [11]: 291 nM
- EC50 [8]: 1580 nM
- EC50 [9]: 1800 nM
- EC50 [10]: 11 nM
